Assay results taken from PubChem BioAssay (NCI).
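Where inhibition never reached the appropriate level, the endpoint shown equals the highest concentration tested. Otherwise, values were interpolated linearly from a five-concentration, 48-hour dose response in 96-well plates. At the GI50, growth is halved. TGI marks complete inhibition of growth.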

Legend:
Test in all cases: growth of human tumour cells (NCI), 48 h
[1] = system: RPMI-8226 leukemia
[2] = system: IGROV1 ovarian
[3] = system: NCI-H522 lung
[4] = system: COLO 205 colon
[5] = system: SK-MEL-2 melanoma
[6] = system: NCI-H23 lung
[7] = system: SW-620 colon
[8] = system: SF-539 CNS
[9] = system: CCRF-CEM leukemia
[10] = system: SK-OV-3 ovarian
[11] = system: SNB-75 CNS
[12] = system: OVCAR-5 ovarian
[13] = system: PC-3 prostate
[14] = system: HOP-92 NSCLC
[15] = system: 786-0 renal
[16] = system: MDA-MB-435
[17] = system: TK-10 renal
[18] = system: HCC-2998 colon
[19] = system: BT-549 breast
[20] = system: HCT-15 colon
[21] = system: UACC-62 melanoma
[22] = system: ACHN renal
[23] = system: M14 melanoma
[24] = system: SK-MEL-5 melanoma
[25] = system: K-562 leukemia
[26] = system: OVCAR-3 ovarian
[27] = system: KM12 colon
[28] = system: DU-145 prostate
[29] = system: OVCAR-4 ovarian
[30] = system: LOX IMVI melanoma
[31] = system: UACC-257 melanoma
[32] = system: SR leukemia
[33] = system: UO-31 renal
[34] = system: RXF 393 renal
[35] = system: SN12C renal
[36] = system: SF-295 CNS
[37] = system: HL-60(TB) leukemia
[38] = system: T-47D breast
[39] = system: NCI/ADR-RES ovarian
[40] = system: CAKI-1 renal
[41] = system: HOP-62 NSCLC
[42] = system: HS 578T breast
[43] = system: MCF7 breast
[44] = system: NCI-H460 lung
[45] = system: HCT-116 colon
[46] = system: NCI-H226 lung
[47] = system: U251 CNS
[48] = system: A498 renal
[49] = system: A549 NSCLC
[50] = system: SK-MEL-28 melanoma
[51] = system: EKVX NSCLC
[52] = system: MALME-3M melanoma
[53] = system: SNB-19 CNS
[54] = system: MDA-MB-231 breast
[55] = system: OVCAR-8 ovarian
[56] = system: HT29 colon
[57] = system: SF-268 CNS
[58] = system: MOLT-4 leukemia

COc1cc(-c2nc3cc(Cl)c(Cl)cc3[nH]2)ccc1OCC(=O)N=Nc1c(O)[nH]c2ccccc12
GI50 [1]: 645 nM | TGI [1]: 3350 nM | GI50 [2]: 313 nM | TGI [2]: 1010 nM | GI50 [3]: 301 nM | TGI [3]: 2180 nM | GI50 [4]: 384 nM | TGI [4]: 1500 nM | GI50 [5]: 1330 nM | TGI [5]: 3270 nM | GI50 [6]: 287 nM | TGI [6]: 938 nM | GI50 [7]: 355 nM | TGI [7]: 1430 nM | GI50 [8]: 1080 nM | TGI [8]: 2290 nM | GI50 [9]: 322 nM | TGI [9]: 17500 nM | GI50 [10]: 1910 nM | TGI [10]: 4390 nM | GI50 [11]: 1230 nM | TGI [11]: 2650 nM | GI50 [12]: 840 nM | TGI [12]: 2450 nM | GI50 [13]: 533 nM | TGI [13]: 2070 nM | GI50 [14]: 794 nM | TGI [14]: 2420 nM | GI50 [15]: 370 nM | TGI [15]: 1540 nM | GI50 [16]: 389 nM | TGI [16]: 1420 nM | GI50 [17]: 2450 nM | TGI [17]: 6760 nM | GI50 [18]: 419 nM | TGI [18]: 1430 nM | GI50 [19]: 822 nM | TGI [19]: 2290 nM | TGI [20]: > 56500 nM | GI50 [21]: 1410 nM | TGI [21]: 2750 nM | GI50 [22]: 2110 nM | TGI [22]: 13800 nM | GI50 [23]: 328 nM | TGI [23]: 1330 nM | GI50 [24]: 541 nM | TGI [24]: 1760 nM | GI50 [25]: 345 nM | TGI [25]: > 31700 nM | GI50 [26]: 409 nM | TGI [26]: 1430 nM | GI50 [27]: 1070 nM | TGI [27]: 3190 nM | GI50 [28]: 501 nM | TGI [28]: 1900 nM | GI50 [29]: 307 nM | TGI [29]: 921 nM | GI50 [30]: 192 nM | TGI [30]: 368 nM | GI50 [31]: 1320 nM | TGI [31]: 3670 nM | GI50 [32]: 301 nM | TGI [32]: > 100000 nM | GI50 [33]: > 52600 nM | TGI [33]: > 100000 nM | GI50 [34]: 678 nM | TGI [34]: 2100 nM | GI50 [35]: 506 nM | TGI [35]: 1800 nM | GI50 [36]: 1280 nM | TGI [36]: 2710 nM | GI50 [37]: 392 nM | TGI [37]: 2220 nM | GI50 [38]: 288 nM | TGI [38]: 1140 nM | GI50 [39]: > 79900 nM | TGI [39]: > 100000 nM | GI50 [40]: 1450 nM | TGI [40]: 2940 nM | GI50 [41]: 832 nM | TGI [41]: 2620 nM | GI50 [42]: 1210 nM | TGI [42]: 4050 nM | GI50 [43]: 201 nM | TGI [43]: 479 nM | GI50 [44]: 420 nM | TGI [44]: 1630 nM | GI50 [45]: 445 nM | TGI [45]: 1550 nM | GI50 [46]: 1040 nM | TGI [46]: 2670 nM | GI50 [47]: 244 nM | TGI [47]: 681 nM | GI50 [48]: 1460 nM | TGI [48]: 3370 nM | GI50 [49]: 1410 nM | TGI [49]: 14100 nM | GI50 [50]: 1380 nM | TGI [50]: 2680 nM | GI50 [51]: 2020 nM | TGI [51]: 21700 nM | GI50 [52]: 226 nM | TGI [52]: 683 nM | GI50 [53]: 657 nM | TGI [53]: 5350 nM | GI50 [54]: 450 nM | TGI [54]: 1690 nM | GI50 [55]: 327 nM | TGI [55]: 1590 nM | GI50 [56]: 352 nM | TGI [56]: 4720 nM | GI50 [57]: 566 nM | TGI [57]: 3060 nM

Nc1ncnc2c1c(-c1ccc(Oc3ccccc3)cc1)nn2C[C@H]1SSC[C@H]1O
GI50 [1]: 1950 nM | TGI [1]: 9130 nM | GI50 [2]: 455 nM | TGI [2]: 2470 nM | GI50 [3]: 953 nM | TGI [3]: 3160 nM | GI50 [4]: 464 nM | TGI [4]: 1800 nM | GI50 [5]: 160 nM | TGI [5]: 435 nM | GI50 [6]: 242 nM | TGI [6]: 968 nM | GI50 [7]: 395 nM | TGI [7]: > 100000 nM | GI50 [8]: 441 nM | TGI [8]: 5970 nM | GI50 [9]: 54 nM | TGI [9]: > 100000 nM | GI50 [10]: 222 nM | TGI [10]: 1310 nM | GI50 [11]: 2880 nM | TGI [11]: > 24000 nM | GI50 [12]: 2200 nM | TGI [12]: > 31300 nM | GI50 [13]: 2050 nM | TGI [13]: 11800 nM | GI50 [14]: 2030 nM | TGI [14]: 7310 nM | GI50 [15]: 2040 nM | TGI [15]: 6370 nM | GI50 [16]: 25.5 nM | TGI [16]: 73.6 nM | GI50 [17]: 289 nM | TGI [17]: 1000 nM | GI50 [18]: 388 nM | TGI [18]: 2030 nM | GI50 [19]: 2180 nM | TGI [19]: 6520 nM | GI50 [20]: 201 nM | TGI [20]: 2290 nM | GI50 [21]: 37.7 nM | TGI [21]: 145 nM | GI50 [58]: 18.4 nM | TGI [58]: 49.2 nM | GI50 [22]: 499 nM | TGI [22]: 6750 nM | GI50 [23]: 15.7 nM | TGI [23]: 33.2 nM | GI50 [24]: 159 nM | TGI [24]: 372 nM | GI50 [25]: 197 nM | TGI [25]: 3100 nM | GI50 [26]: 188 nM | TGI [26]: 421 nM | GI50 [27]: 61.8 nM | TGI [27]: 2220 nM | GI50 [28]: 1070 nM | TGI [28]: 2370 nM | GI50 [29]: 1150 nM | TGI [29]: > 100000 nM | GI50 [30]: 70.3 nM | TGI [30]: 523 nM | GI50 [31]: 208 nM | TGI [31]: 1360 nM | GI50 [32]: 28.9 nM | TGI [32]: 127 nM | GI50 [33]: 468 nM | TGI [33]: 2770 nM | GI50 [34]: 1350 nM | TGI [34]: 4310 nM | GI50 [35]: 1400 nM | TGI [35]: 4670 nM | GI50 [36]: 678 nM | TGI [36]: 3190 nM | GI50 [37]: 242 nM | TGI [37]: 660 nM | GI50 [38]: 205 nM | TGI [38]: 518 nM | GI50 [39]: 1770 nM | TGI [39]: 4870 nM | GI50 [40]: 938 nM | TGI [40]: 2850 nM | GI50 [41]: 39 nM | TGI [41]: 893 nM | GI50 [42]: 1880 nM | TGI [42]: 8700 nM | GI50 [43]: 46.5 nM | TGI [43]: 1200 nM | GI50 [44]: 23.3 nM | TGI [44]: 56.5 nM | GI50 [45]: 48.9 nM | TGI [45]: 1210 nM | GI50 [46]: 1430 nM | TGI [46]: 3420 nM | GI50 [47]: 1200 nM | TGI [47]: 4270 nM | GI50 [48]: 1840 nM | TGI [48]: 4240 nM | GI50 [49]: 394 nM | TGI [49]: 2070 nM | GI50 [50]: 25.8 nM | TGI [50]: 79.3 nM | GI50 [51]: 309 nM | TGI [51]: 1730 nM | GI50 [52]: 81.5 nM | TGI [52]: 332 nM | GI50 [53]: 510 nM | TGI [53]: 20100 nM | GI50 [54]: 1330 nM | TGI [54]: 3710 nM | GI50 [55]: 1090 nM | TGI [55]: 3870 nM | GI50 [56]: 179 nM | TGI [56]: 1480 nM
